The values below come from patent publication US20170240556A1, “BIFLUORODIOXALANE-AMINO-BENZIMIDAZOLE KINASE INHIBITORS FOR THE TREATMENT OF CANCER, AUTOIMMUNEINFLAMMATION AND CNS DISORDERS” (4SC DISCOVERY GMBH, priority 2012, published 2017).

Experiment [1] addresses Casein kinase 1 epsilon (CSKN1E) (Homo sapiens, UniProt P49674). Briefly: Casein kinase assay, CK1 epsilon. The conditions noted are these: recombinant CSKN1E 30 nM, ATP 10 μM. It is filed as biochemical. The procedure:
The recombinant protein Casein kinase 1 delta (CSKN1D) was added to the substrate solution in a concentration of 5 nM and gently mixed. Dilution series in of compounds of the present invention in DMSO were added to the reaction mixture, followed after 20 min by addition of a mixture of ATP and ^33P-ATP (specific activity 0.01 μCi/μl final) to a final concentration of 10 μM. Reactions were carried out at 25° C. for 120 min, followed by spotting the reactions onto P81 ion exchange filter paper. Unbound phosphate was removed by washing of the filters in 0.75% phosphoric acid. […] IC50 values and curve fits were obtained using the program Prism® (Graph Pad Software).
The above assay was also used to determine the inhibitory capacity of the compounds of the present invention on Casein Kinase 1 epsilon, wherein instead of CSKN1D, recombinant protein Casein kinase 1 epsilon (CSKN1E) was added to the substrate solution in a concentration of 30 nM and gently mixed.

Experiment [2] concerns the target Casein kinase 1 delta (CSKN1D) (Homo sapiens, UniProt P48730). Briefly: Casein kinase assay, CK1 delta. The following applies: recombinant CSKN1D 5 nM, ATP 10 μM. Format: biochemical.

pIC50: −log10 of the molar value. A value given as a limit tells only on which side of the number the result lay.

Chain of Casein kinase 1 epsilon (CSKN1E) (P49674 whole entry): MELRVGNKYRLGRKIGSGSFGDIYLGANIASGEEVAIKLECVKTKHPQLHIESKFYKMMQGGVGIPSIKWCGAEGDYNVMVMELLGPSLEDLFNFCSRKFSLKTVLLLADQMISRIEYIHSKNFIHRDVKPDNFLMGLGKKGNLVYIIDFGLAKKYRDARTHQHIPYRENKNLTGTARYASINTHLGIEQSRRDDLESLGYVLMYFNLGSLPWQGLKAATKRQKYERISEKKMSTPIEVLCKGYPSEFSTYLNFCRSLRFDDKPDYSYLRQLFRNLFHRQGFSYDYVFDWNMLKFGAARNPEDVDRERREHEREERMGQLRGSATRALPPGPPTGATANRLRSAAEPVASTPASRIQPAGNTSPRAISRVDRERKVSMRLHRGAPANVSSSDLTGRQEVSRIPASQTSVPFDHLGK
Chain of Casein kinase 1 delta (CSKN1D) (P48730 whole entry): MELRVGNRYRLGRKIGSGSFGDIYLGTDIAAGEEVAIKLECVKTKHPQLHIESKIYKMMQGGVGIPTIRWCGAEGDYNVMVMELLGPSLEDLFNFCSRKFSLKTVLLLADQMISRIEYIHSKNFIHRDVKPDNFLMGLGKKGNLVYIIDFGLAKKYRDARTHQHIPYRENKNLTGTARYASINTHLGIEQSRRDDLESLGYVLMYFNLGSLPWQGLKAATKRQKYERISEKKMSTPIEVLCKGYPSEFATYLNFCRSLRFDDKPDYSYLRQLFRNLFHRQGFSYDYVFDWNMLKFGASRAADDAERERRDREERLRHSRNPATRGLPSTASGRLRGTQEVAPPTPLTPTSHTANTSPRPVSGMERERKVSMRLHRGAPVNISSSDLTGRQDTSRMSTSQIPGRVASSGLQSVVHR

As to `Cc1nn(-c2ccccc2)c(C)c1C(=O)Nc1nc2cc3c(cc2[nH]1)OC(F)(F)O3` [Compound 15, N-(2,2-difluoro-5H-[1,3]dioxolo[4′,5′:4,5]benzo[1,2-d]imidazol-6-yl)-3,5-dimethyl-1-phenyl-1H-pyrazole-4-carboxamide], the pIC50 in experiment [1] and in experiment [2] was less than 6.00 throughout.
`Nc1c[nH]c(C(=O)Nc2nc3cc4c(cc3[nH]2)OC(F)(F)O4)c1` [Compound 15B, 4-Amino-N-(2,2-difluoro-5H-[1,3]dioxolo[4′,5′:4,5]benzo[1,2-d]imidazol-6-yl)-1H-pyrrole-2-carboxamide]: the pIC50 – broadly, the IC50 on a negative log10 scale, so that one unit is a factor of ten – is 6.00 to 6.70 in experiment [1] and greater than 6.70 in experiment [2].
As for `O=C(Nc1nc2cc3c(cc2[nH]1)OC(F)(F)O3)c1cn(-c2ccccc2)nc1C(F)(F)F` [Compound 16, N-(2,2-difluoro-5H-[1,3]dioxolo[4′,5′:4,5]benzo[1,2-d]imidazol-6-yl)-1-phenyl-3-(trifluoromethyl)-1H-pyrazole-4-carboxamide], the pIC50 in experiment [1] and in experiment [2] was 6.00 to 6.70 throughout.
Consider `O=C(Nc1nc2cc3c(cc2[nH]1)OC(F)(F)O3)c1nsc(NC(=O)c2ccccc2OC(F)(F)F)n1` [Compound 17, N-(2,2-difluoro-5H-[1,3]dioxolo[4′,5′:4,5]benzo[1,2-d]imidazol-6-yl)-5-(2-(trifluoromethoxy)benzamido)-1,2,4-thiadiazole-3-carboxamide], for which the pIC50 in experiment [1] and in experiment [2] was greater than 6.70 each time.
In the case of `O=C(Nc1nc2cc3c(cc2[nH]1)OC(F)(F)O3)c1csc(-c2cccc(Cl)c2)n1` [Compound 17B, 2-(3-chlorophenyl)-N-(2,2-difluoro-5H-[1,3]dioxolo[4′,5′:4,5]benzo[1,2-d]imidazol-6-yl)thiazole-4-carboxamide], the pIC50 was 6.00 to 6.70 in experiment [1] and greater than 6.70 in experiment [2].
For the molecule `O=C(Nc1nc2cc3c(cc2[nH]1)OC(F)(F)O3)c1ccncc1` [Compound 18, N-(2,2-difluoro-5H-[1,3]dioxolo[4′,5′:4,5]benzo[1,2-d]imidazol-6-yl)isonicotinamide], the pIC50 in experiment [1] is 6.00 to 6.70; in experiment [2], greater than 6.70.
In the case of `O=C(O)c1cccc(C(=O)Nc2nc3cc4c(cc3[nH]2)OC(F)(F)O4)c1` [Compound 18B, 3-((2,2-Difluoro-5H-[1,3]dioxolo[4′,5′:4,5]benzo[1,2-d]imidazol-6-yl)carbamoyl)benzoic acid], the pIC50 in experiment [1] and in experiment [2] was 6.00 to 6.70 each time.
With `COc1ccc(OC)c(S(=O)(=O)Nc2nc(C(=O)Nc3nc4cc5c(cc4[nH]3)OC(F)(F)O5)cs2)c1` [Compound 19, N-(2,2-difluoro-5H-[1,3]dioxolo[4′,5′:4,5]benzo[1,2-d]imidazol-6-yl)-2-(2,5-dimethoxyphenylsulfonamido)thiazole-4-carboxamide], the pIC50 in experiment [1] and in experiment [2] was greater than 6.70 throughout.
For the molecule `O=C(Nc1nc2cc3c(cc2[nH]1)OC(F)(F)O3)c1ccsc1` [Compound 20, N-(2,2-difluoro-5H-[1,3]dioxolo[4′,5′:4,5]benzo[1,2-d]imidazol-6-yl)thiophene-3-carboxamide], the results for the pIC50 in experiment [1] and in experiment [2] were 6.00 to 6.70 and greater than 6.70, respectively.
In the case of `Cn1cccc1C(=O)Nc1nc2cc3c(cc2[nH]1)OC(F)(F)O3` [Compound 20B, N-(2,2-Difluoro-5H-[1,3]dioxolo[4′,5′:4,5]benzo[1,2-d]imidazol-6-yl)-1-methyl-1H-pyrrole-2-carboxamide], the pIC50 in experiment [1] is less than 6.00; in experiment [2] it was 6.00 to 6.70.
As for `O=C(Nc1nc(C(=O)Nc2nc3cc4c(cc3[nH]2)OC(F)(F)O4)cs1)c1ccncc1` [Compound 21, N-(2,2-difluoro-5H-[1,3]dioxolo[4′,5′:4,5]benzo[1,2-d]imidazol-6-yl)-2-(isonicotinamido)thiazole-4-carboxamide], the pIC50 in experiment [1] and in experiment [2] was greater than 6.70 in each case.
For the molecule `Nc1ncc(Br)nc1C(=O)Nc1nc2cc3c(cc2[nH]1)OC(F)(F)O3` [Compound 22, 2-amino-6-bromo-N-(2,2-difluoro-5H-[1,3]dioxolo[4′,5′:4,5]benzo[1,2-d]imidazol-6-yl)pyrazine-2-carboxamide], the values for the pIC50 in experiment [1] and in experiment [2] were less than 6.00 and 6.00 to 6.70, respectively.
Regarding `O=C(Nc1nc2cc3c(cc2[nH]1)OC(F)(F)O3)c1csc(Nc2ccc(OC(F)(F)F)cc2)n1` [Compound 23, N-(2,2-difluoro-5H-[1,3]dioxolo[4′,5′:4,5]benzo[1,2-d]imidazol-6-yl)-2-((4-(trifluoromethoxy)phenyl)amino)thiazole-4-carboxamide], the pIC50 in experiment [1] and in experiment [2] was less than 6.00 in each case.
As for `O=C(Nc1nc2cc3c(cc2[nH]1)OC(F)(F)O3)c1coc(N2CCOCC2)n1` [Compound 24, N-(2,2-difluoro-5H-[1,3]dioxolo[4′,5′:4,5]benzo[1,2-d]imidazol-6-yl)-2-morpholinooxazole-4-carboxamide], the pIC50 in experiment [1] and in experiment [2] was 6.00 to 6.70 each time.
As to `Cc1cc(C(F)(F)F)nc(Nc2nc(C(=O)Nc3nc4cc5c(cc4[nH]3)OC(F)(F)O5)cs2)n1` [Compound 25, N-(2,2-difluoro-5H-[1,3]dioxolo[4′,5′:4,5]benzo[1,2-d]imidazol-6-yl)-2-((4-methyl-6-(trifluoromethyl)pyrimidin-2-yl)amino)thiazole-4-carboxamide], the pIC50 in experiment [1] and in experiment [2] was less than 6.00 each time.
Consider `O=C(Nc1nc(C(=O)Nc2nc3cc4c(cc3[nH]2)OC(F)(F)O4)cs1)Nc1ccccc1OC(F)(F)F` [Compound 26, N-(2,2-difluoro-5H-[1,3]dioxolo[4′,5′:4,5]benzo[1,2-d]imidazol-6-yl)-2-(3-(2-(trifluoromethoxy)phenyl)ureido)thiazole-4-carboxamide], for which the pIC50 in experiment [1] and in experiment [2] was greater than 6.70 in each case.
With `Cc1cc(C(=O)Nc2nc3cc4c(cc3[nH]2)OC(F)(F)O4)c(C)s1` [Compound 28, N-(2,2-difluoro-5H-[1,3]dioxolo[4′,5′:4,5]benzo[1,2-d]imidazole-6-yl)-2,5-dimethylthiophene-3-carboxamide], the pIC50 in experiment [1] and in experiment [2] was 6.00 to 6.70 each time.
With `O=C(Nc1nc2cc3c(cc2[nH]1)OC(F)(F)O3)c1csc(Br)c1` [Compound 29, 5-bromo-N-(2,2-difluoro-5H-[1,3]dioxolo[4′,5′:4,5]benzo[1,2-d]imidazole-6-yl)-thiophene-3-carboxamide], the pIC50 in experiment [1] and in experiment [2] was greater than 6.70 each time.
For `O=C(Nc1nc2cc3c(cc2[nH]1)OC(F)(F)O3)c1csc([N+](=O)[O-])c1` [Compound 30, N-(2,2-difluoro-5H-[1,3]dioxolo[4′,5′:4,5]benzo[1,2-d]imidazole-6-yl)-5-nitrothiophene-3-carboxamide], the pIC50 in experiment [1] and in experiment [2] was greater than 6.70 each time.
In the case of `O=C(Nc1nc2cc3c(cc2[nH]1)OC(F)(F)O3)c1csc2ccccc12` [Compound 31, N-(2,2-difluoro-5H-[1,3]dioxolo[4′,5′:4,5]benzo[1,2-d]imidazol-6-yl)benzo[b]thiophene-3-carboxamide], the pIC50 is 6.00 to 6.70 in experiment [1] and greater than 6.70 in experiment [2].
For the molecule `O=C(Nc1nc2cc3c(cc2[nH]1)OC(F)(F)O3)c1ccoc1` [Compound 32, N-(2,2-difluoro-5H-[1,3]dioxolo[4′,5′:4,5]benzo[1,2-d]imidazol-6-yl)furan-3-carboxamide], the pIC50 in experiment [1] is greater than 6.70; in experiment [2], 6.00 to 6.70.
In the case of `Cc1occc1C(=O)Nc1nc2cc3c(cc2[nH]1)OC(F)(F)O3` [Compound 33, N-(2,2-difluoro-5H-[1,3]dioxolo[4′,5′:4,5]benzo[1,2-d]imidazol-6-yl)-2-methylfuran-3-carboxamide], the pIC50 in experiment [1] was 6.00 to 6.70; in experiment [2] it was greater than 6.70.
Consider `Cc1cc(C(=O)Nc2nc3cc4c(cc3[nH]2)OC(F)(F)O4)c(C)o1` [Compound 34, N-(2,2-difluoro-5H-[1,3]dioxolo[4′,5′:4,5]benzo[1,2-d]imidazol-6-yl)-2,5-dimethylfuran-3-carboxamide], for which the pIC50 in experiment [1] and in experiment [2] was less than 6.00 each time.
Take `O=C(Nc1nc2cc3c(cc2[nH]1)OC(F)(F)O3)c1cocn1` [Compound 35, N-(2,2-difluoro-5H-[1,3]dioxolo[4′,5′:4,5]benzo[1,2-d]imidazol-6-yl)-oxazole-4-carboxamide]: the pIC50 is less than 6.00 in experiment [1] and 6.00 to 6.70 in experiment [2].
The matching figures for `O=C(Nc1nc2cc3c(cc2[nH]1)OC(F)(F)O3)c1nnn(-c2cccc(F)c2)c1C(F)(F)F` [Compound 36, N-(2,2-difluoro-5H-[1,3]dioxolo[4′,5′:4,5]benzo[1,2-d]imidazol-6-yl)-1-(3-fluorophenyl)-5-(trifluoromethyl)-1H-1,2,3-triazole-4-carboxamide]: less than 6.00 and 6.00 to 6.70.
On the same counts, the results for `O=C(Nc1nc2cc3c(cc2[nH]1)OC(F)(F)O3)c1csc(N2CCOCC2)n1` [Compound 37, N-(2,2-difluoro-5H-[1,3]dioxolo[4′,5′:4,5]benzo[1,2-d]imidazol-6-yl)-2-morpholinothiazole-4-carboxamide] are 6.00 to 6.70 and greater than 6.70.
On to `O=C(Nc1nc2cc3c(cc2[nH]1)OC(F)(F)O3)c1csc(-c2ccc3c(c2)CCO3)c1` [Compound 38, N-(2,2-difluoro-5H-[1,3]dioxolo[4′,5′:4,5]benzo[1,2-d]imidazol-6-yl)-5-(2,3-dihydrobenzofuran-5-yl)thiophene-3-carboxamide], for which the pIC50 in experiment [1] is 6.00 to 6.70; in experiment [2], greater than 6.70.
